Assay results: US20260125375A1 (Pfizer Inc., priority 2022, published 2026)

Columns and labels:
CBL-B (residues 36-427) = target: T1, CBL-B (residues 36-427) (Homo sapiens, UniProt Q13191); assay: Ligand Displacement Assay (LDA), HTRF competitive binding against BODIPY-labeled fluorescent tracer, CBL-B; details: geometric mean of the number of tests, read-out: CBL-B Ki (nM) GMean
T1 construct: Purified CBL-B (residues 36-427) and C-CBL (residues 46-435) proteins from baculovirus-infected insect cells; made in house; host or cells: baculovirus-infected insect cells
From the text: (§1) Ligand Displacement Assay (LDA)
(§2) The purpose of the homogeneous time-resolved fluorescence energy transfer (HTRF) ligand displacement assay is to determine whether the compounds of the disclosure are competitive with a BODIPY-labeled compound; “fluorescent tracer” aka [6-cyclopropyl-5-(17-{5-[(3,5-dimethyl-2H-pyrrol-2-ylidene-KN)methyl]-1H-pyrrol-2-yl-κN}-15-oxo-5,8,11-trioxa-2,14-diazaheptadecan-1-yl)-N-(3-{3-[(4-methyl-4H-1,2,4-triazol-3-yl)methyl]oxetan-3-yl}phenyl)pyridine-2-carboxamidato](difluorido)boron and to assess CBL-B binding selectivity over C-CBL. The synthesis of this fluorescent tracer compound is described below.
(§3) Purified CBL-B (residues 36-427) and C-CBL (residues 46-435) proteins from baculovirus-infected insect cells were biotin labeled on their amino-terminal AviTag™ epitopes by the E. coli biotin ligase BirA to bind terbium-labeled streptavidin (SA-Tb). After optimizing the assays and determining KD values for the fluorescent tracer to CBL-B and C-CBL, compounds were tested using three-fold serial dilutions in duplicate from a top concentration of […] with a final DMSO concentration of 2%. […] The Ki (nM) values reported are the geometric means (GMean) of the number of tests conducted.

C-CBL (residues 46-435) = target: T2, C-CBL (residues 46-435) (Homo sapiens, UniProt P22681); assay: Ligand Displacement Assay (LDA), HTRF competitive binding against BODIPY-labeled fluorescent tracer, C-CBL; details: geometric mean of the number of tests, read-out: C-CBL Ki (nM) GMean
T2 construct: Purified CBL-B (residues 36-427) and C-CBL (residues 46-435) proteins from baculovirus-infected insect cells; made in house; host or cells: baculovirus-infected insect cells
T2 sequence (P22681 46-435): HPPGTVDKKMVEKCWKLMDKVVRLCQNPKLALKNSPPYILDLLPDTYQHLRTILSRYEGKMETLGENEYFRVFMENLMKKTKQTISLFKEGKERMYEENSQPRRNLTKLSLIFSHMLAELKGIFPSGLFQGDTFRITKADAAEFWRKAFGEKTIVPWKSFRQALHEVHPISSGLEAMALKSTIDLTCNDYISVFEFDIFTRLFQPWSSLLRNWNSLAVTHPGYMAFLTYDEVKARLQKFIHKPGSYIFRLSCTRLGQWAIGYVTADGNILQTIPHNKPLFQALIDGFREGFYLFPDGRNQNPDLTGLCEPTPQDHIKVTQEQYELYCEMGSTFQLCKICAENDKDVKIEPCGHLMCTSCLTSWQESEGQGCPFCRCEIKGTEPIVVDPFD
From the text: as §1, §2, §3

WT CBL-B (36-427) = target: T3, WT CBL-B (36-427) (Homo sapiens, UniProt Q13191); assay: Surface Plasmon Resonance (SPR) assay, binding affinity and kinetics, CBL-B; details: SPR at 10° C., biotinylated WT CBL-B (36-427) on streptavidin chip; geometric mean; read-out: CBL-B SPR Kd (nM) GMean
T3 construct: N-terminal biotinylated WT CBL-B (36-427) and C-CBL (46-435) were captured on a streptavidin (SA) coated sensor chip
Experimental: (§4) Surface Plasmon Resonance (SPR) Assay
(§5) The purpose of the SPR assay is to evaluate the binding affinity and kinetics of the compound of disclosure binding to CBL-B and C-CBL.
(§6) The binding affinity and kinetics of compound binding to CBL-B and C-CBL were measured by Surface Plasmon Resonance (SPR) using either Biacore S200, 8K or 8K+ (Cytiva, Marlborough, MA) instruments. N-terminal biotinylated WT CBL-B (36-427) and C-CBL (46-435) were captured on a streptavidin (SA) coated sensor chip to achieve approximately 5000 to 6000 RUs of surface density. Un-functionalized SA surfaces with no immobilized protein served as reference for binding kinetic analysis. All the samples were prepared in buffer consisting of 10 mM HEPES, 150 mM NaCl, 0.05% Tween-20, 5% glycerol, […], 2% DMSO, pH 7.2. The same buffer was used as the running buffer during the experiments. Compound binding kinetics were measured in either multi-cycle or single-cycle kinetic format.
(§7) Multi-cycle kinetic analysis (MCK): A two-fold, 10-point serial dilution of test compounds was set-up in a 96-well microplate (Greiner; Cat #650101) with a top concentration of either 10 μM or 100 μM. Binding kinetics was measured at 10° C. by injecting serial dilution of compounds onto both reference and CBL immobilized channels at a flow rate of 100 μL/min and association time of 90 seconds. Compound dissociation was monitored for >400 seconds during each cycle. No additional regeneration was used. DMSO calibration curve was obtained before and after compound analysis by injecting 0-4% of DMSO in assay buffer. A suitable compound with known affinity and kinetics was tested once in every experiment as a positive control to assess activity of the captured proteins on the surface.
(§8) Single-cycle kinetic analysis (SCK): A 3-fold, 6-point serial dilution of compounds was set-up in a deep 96-well microplate (Greiner Bio; Cat #780201) with the highest concentration of 1 μM (concentration range: […]). Binding kinetics was measured at 10° C. by injecting serial dilutions of compounds in increasing order onto reference as well as CBL immobilized channels at a flow rate of 100 μL/min and association time of 120 seconds. Compound dissociation was monitored for >5400 seconds. Two buffer blanks were also run in a single-cycle kinetics format before the compound run for double referencing. No additional regeneration was used. DMSO calibration curve was obtained before and after compound analysis by injecting 0-4% of DMSO in the assay buffer. A suitable compound with known affinity and kinetics was tested once in every experiment as a positive control to assess activity of the captured proteins on the surface.

C-CBL (46-435) = target: T4, C-CBL (46-435) (Homo sapiens, UniProt P22681); assay: Surface Plasmon Resonance (SPR) assay, binding affinity and kinetics, C-CBL; details: SPR at 10° C., biotinylated C-CBL (46-435) on streptavidin chip; geometric mean; read-out: C-CBL SPR Kd (nM) GMean
T4 construct: N-terminal biotinylated WT CBL-B (36-427) and C-CBL (46-435) were captured on a streptavidin (SA) coated sensor chip
T4 sequence (P22681 46-435): T2 sequence (P22681 46-435)
Experimental: as §4, §5, §6, §7, §8

| SMILES | Ki (CBL-B (residues 36-427)) [nM] | Ki (C-CBL (residues 46-435)) [nM] | Kd (WT CBL-B (36-427)) [nM] | Kd (C-CBL (46-435)) [nM] |
| --- | --- | --- | --- | --- |
| CC(N[C@@H]1CCOC1)c1nc(C(F)(F)F)cc2c(-c3cccc(C4(Cc5nncn5C)COC4)c3)n[nH]c12 (single isomer, unassigned) [Example C86] | 9 | 49.4 | 5.1 | 60.3 |
| Cn1cnnc1[C@@H](c1cccc(-c2n[nH]c3c(CNC4CCNC(=O)C4)nc(C(F)(F)F)cc23)c1)C1CCC1 (single isomer, unassigned) [Example C87] | 21.2 | 210 | 8.4 | 175 |
| Cn1cnnc1[C@@H](c1cccc(-c2n[nH]c3c(CNC4CCNC(=O)C4)nc(C(F)(F)F)cc23)c1)C1CCC1 (single isomer, unassigned) [Example C88] | 7.2 | 132 | 4.8 | 59.7 |
| CCNC(C)c1nc(C(F)(F)F)cc2c(-c3cccc([C@H](c4nncn4C)C4CCC4)c3)n[nH]c12 (single isomer, unassigned) [Example C90] | 9.4 | 93.3 | 5.1 | 169 |
| C[C@H](N[C@H]1C[C@H](O)C1)c1nc(C(F)(F)F)cc2c(-c3cccc([C@H](c4nncn4C)C4CCC4)c3)n[nH]c12 (single isomer, unassigned) [Example C91] | 12.7 | 105 | 5.1 | 129 |
| CC(NC1CC(F)(F)C1)c1nc(C(F)(F)F)cc2c(-c3cccc(C4(Cc5nncn5C)COC4)c3)n[nH]c12 (single isomer, unassigned) [Example C93, 3,3-difluoro-N-{(1ξ)-1-[3-(3-{3-[(4-methyl-4H-1,2,4-triazol-3-yl)methyl]oxetan-3-yl}phenyl)-5-(trifluoromethyl)-1H-pyrazolo[3,4-c]pyridin-7-yl]ethyl}cyclobutan-1-amine] | 3.6 | 15.9 | 2.3 | 21.7 |
| CC(NC1CC(F)(F)C1)c1nc(C(F)(F)F)cc2c(-c3cccc(C4(Cc5nncn5C)COC4)c3)n[nH]c12 (single isomer, unassigned) [Example C94, 3,3-difluoro-N-{(1ξ)-1-[3-(3-{3-[(4-methyl-4H-1,2,4-triazol-3-yl)methyl]oxetan-3-yl}phenyl)-5-(trifluoromethyl)-1H-pyrazolo[3,4-c]pyridin-7-yl]ethyl}cyclobutan-1-amine] | 2.8 | 14.9 | 2.5 | 15 |
| CC(NC1CC2(COC2)C1)c1nc(C(F)(F)F)cc2c(-c3cccc([C@H](c4nncn4C)C4CCC4)c3)n[nH]c12 (single isomer, unassigned) [Example C97] | 31.8 | 141 | 9.6 | 242 |
| CC(NC1CC2(COC2)C1)c1nc(C(F)(F)F)cc2c(-c3cccc([C@H](c4nncn4C)C4CCC4)c3)n[nH]c12 (single isomer, unassigned) [Example C98] | 26.9 | 109 | 11.3 | 205 |
| CN[C@@H](C)c1nc(C(F)(F)F)cc2c(-c3cccc(C4(Cc5nncn5C)COC4)c3)n[nH]c12 (single isomer, unassigned) [Example D37] | 22.2 | 64.5 | 7.9 | 68.6 |
| CN[C@H](C)c1nc(C(F)(F)F)cc2c(-c3cccc(C4(Cc5nncn5C)COC4)c3)n[nH]c12 (single isomer, unassigned) [Example D38] | 34 | 135 | 10 | 110 |
| C[C@@H](c1nc(C(F)(F)F)cc2c(-c3cccc(C4(Cc5nncn5C)COC4)c3)n[nH]c12)N(C)C (single isomer, unassigned) [Example D39] | 42.1 | 229 | 14.9 | 164 |
| C[C@H](c1nc(C(F)(F)F)cc2c(-c3cccc(C4(Cc5nncn5C)COC4)c3)n[nH]c12)N(C)C (single isomer, unassigned) [Example D40] | 23.9 | 98.1 | 5.5 | 88.5 |
| C[C@@H](c1nc(C(F)(F)F)cc2c(-c3cccc(C4(Cc5nncn5C)COC4)c3)n[nH]c12)N1CCC1 (single isomer, unassigned) [Example D41] | 18.5 | 65.5 | 6.2 | 50.8 |
| C[C@H](c1nc(C(F)(F)F)cc2c(-c3cccc(C4(Cc5nncn5C)COC4)c3)n[nH]c12)N1CCC1 (single isomer, unassigned) [Example D42] | 35.3 | 163 | 9.4 | 59.8 |
| C[C@@H](c1nc(C(F)(F)F)cc2c(-c3cccc(C4(Cc5nncn5C)COC4)c3)n[nH]c12)N1CC(F)C1 (single isomer, unassigned) [Example D43] | 14.5 | 75.1 | 6.7 | 80.2 |
| C[C@H](c1nc(C(F)(F)F)cc2c(-c3cccc(C4(Cc5nncn5C)COC4)c3)n[nH]c12)N1CC(F)C1 (single isomer, unassigned) [Example D44] | 15.6 | 47.4 | 5.9 | 74 |
| C[C@@H](c1nc(C(F)(F)F)cc2c(-c3cccc(C4(Cc5nncn5C)COC4)c3)n[nH]c12)N1CC(F)(F)C1 (single isomer, unassigned) [Example D45] | 19.9 | 80.3 | 5.2 | 83.9 |
| C[C@H](c1nc(C(F)(F)F)cc2c(-c3cccc(C4(Cc5nncn5C)COC4)c3)n[nH]c12)N1CC(F)(F)C1 (single isomer, unassigned) [Example D46] | 46.5 | 250 | 12.2 | 184 |
| C[C@@H](c1nc(C(F)(F)F)cc2c(-c3cccc(C4(Cc5nncn5C)COC4)c3)n[nH]c12)N1CCCC1 (single isomer, unassigned) [Example D47] | 36.9 | 162 | 16.3 | 193 |
| C[C@H](c1nc(C(F)(F)F)cc2c(-c3cccc(C4(Cc5nncn5C)COC4)c3)n[nH]c12)N1CCCC1 (single isomer, unassigned) [Example D48] | 16.1 | 44.9 | 9.3 | 74.6 |
